According to patent US20230310518A1, “Compositions and Methods for Treating Infections of the Gastrointestinal Tract” (Icahn School of Medicine at Mount Sinai, priority 2020, published 2023):

Assays:
[1] = tested on: strains included in MTC01; assay: Antibiotic susceptibility, MIC by CLSI standards (Micromyx) and in-house etest; type: cell-based; conditions: highest value of CLSI and etest methods
Source text: To be suitable for human trials, the strains in the bacterial consortium must be cultivatable in growth media that is free of animal products. The inventors discovered that all 16 bacterial strains can be cultured in a specific animal free media LYH_VIB (Table 7). All strains reach sufficient optical density (OD600) and potency (CFU/mL) cultured in LYH_VIB to be manufactured for human trials (Table 5). For safety considerations, the inventors focused on bacterial consortium strains that would be susceptible to multiple antibiotics. The inventors tested susceptibility to a range of antibiotics for all strains included in MTC01 and the minimal inhibitory concentration (MIC) was determined according to guidelines of the Clinical and Laboratory Standards Institute (CLSI). All strains were susceptible to multiple antibiotics (Table 6). […] The inventors confirmed that all 16 strains were strict anaerobes with no bacterial growth documented for any of the strains under aerobic conditions as confirmed by total aerobic microbial count (TAMC).
Each strain is susceptible to multiple antibiotics, and all strains are susceptible to three antibiotics (SAM, AMC, MEM). Minimum inhibitory concentrations (MIC) were determined by a CRO [Micromyx, LLC] according to CLSI standards and in-house by etest, keeping the highest value between the two methods: vancomycin (VAN), metronidazole (MTZ), tigecycline (TGC), ampicillin/sulbactam (SAM), amoxicillin/clavulanic acid (AMC), meropenem (MEM), piperacillin/tazobactam (TZP), clindamycin (CLI), ceftriaxone (CRO), moxifloxacin (MOX). […] Finally, multiple test fermentations were used to determine that the volumes for each manufacturing run are well within the 8L capacity of our current manufacturing set-up.

[2] = tested on: patients with rCDI; assay: Validation of bacterial strain engraftment through culturing from donor and recipient post-FMT; type: in vivo, human; conditions: 8 weeks post-FMT; number of strains of the species
Source text: The isolation and sequencing of the transmitted strains from both the donor and the recipient represents a gold standard validation and verification of the commensal Koch’s postulates. […] The inventors cultured strains from 6 recipients both pre- and post-FMT (FIG. 2A) and compared the strain composition to that from the donor, to experimentally validate bacterial strain transmission.

Row | Molecule | susceptibility of all MTC01 strains to the antibiotic [1] | Cultured in both donor and recipient post-FMT at 8 weeks [2]
1 | C[C@@H](O)[C@H]1C(=O)N2C(C(=O)O)=C(S[C@@H]3CN[C@H](C(=O)N(C)C)C3)[C@H](C)[C@H]12 [MEM, meropenem] | susceptible | –
2 | ampicillin/sulbactam [SAM] | susceptible | –
3 | Parabacteroides distasonis | – | 3 strains
4 | Bacteroides cellulosilyticus | – | 1 strains
5 | Bacteroides fragilis | – | 1 strains
6 | Bifidobacterium longum | – | 4 strains
7 | amoxicillin/clavulanic acid [AMC] | susceptible | –
